Assay results published in ChEMBL document CHEMBL1201862, “PubChem BioAssay data set” (2004).
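These data come from cells grown in 96-well plates and exposed to compound for 48 hours at five concentrations. The concentration for 50% growth inhibition is given as GI50.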 The source made the active and inactive calls. Cut-off read from the data, not from the text of the source: active = GI50 up to about 1.1 µM and inactive = higher.

Key:
Experiment in all cases: NCI anticancer screen, dose series, 48 h
[1] = tested on: SF-539
[2] = tested on: OVCAR-4
[3] = tested on: K562
[4] = tested on: UACC-257
[5] = tested on: SNB-19
[6] = tested on: Hs-578T
[7] = tested on: A549
[8] = tested on: HOP-62
[9] = tested on: NCI/ADR-RES
[10] = tested on: UACC-62
[11] = tested on: OVCAR-3
[12] = tested on: M14
[13] = tested on: T47D
[14] = tested on: 786-0
[15] = tested on: MCF7
[16] = tested on: PC-3
[17] = tested on: SK-MEL-2
[18] = tested on: MDA-MB-435
[19] = tested on: UO-31

SMILES	GI50 [1]	GI50 [2]	GI50 [3]	GI50 [4]	GI50 [5]	GI50 [6]	GI50 [7]	GI50 [8]	GI50 [9]	GI50 [10]	GI50 [11]	GI50 [12]	GI50 [13]	GI50 [14]	GI50 [15]	GI50 [16]	GI50 [17]	GI50 [18]	GI50 [19]
OC[C@H]1O[C@@H]2O[C@@](COCc3ccccc3)([C@H](OCc3ccccc3)[C@H]2O)[C@@H]1OCc1ccccc1	17.5 µM (inactive)	2.99 µM (inactive)	7.76 µM (inactive)	17.5 µM (inactive)	17.6 µM (inactive)	7.4 µM (inactive)	14.7 µM (inactive)	18.1 µM (inactive)	17.2 µM (inactive)	14.4 µM (inactive)	14.6 µM (inactive)	17.6 µM (inactive)	14.8 µM (inactive)	17 µM (inactive)	20.6 µM (inactive)	14.2 µM (inactive)	16.3 µM (inactive)	17.3 µM (inactive)	15.6 µM (inactive)
CC(C)=CCC/C(C)=C/CC/C(C)=C/CSc1ccccc1C(=O)O [SALIRASIB]	17.5 µM (inactive)	36.9 µM (inactive)	36.6 µM (inactive)	34.8 µM (inactive)	21 µM (inactive)	17.8 µM (inactive)	20.7 µM (inactive)	16.9 µM (inactive)	22.5 µM (inactive)	17.7 µM (inactive)	16.5 µM (inactive)	20.4 µM (inactive)	> 10 µM (inactive)	18.2 µM (inactive)	24.8 µM (inactive)	19.3 µM (inactive)	14.4 µM (inactive)	20 µM (inactive)	> 10 µM (inactive)
CC(=O)C(I(OS(=O)(=O)c1ccc(C)cc1)c1ccccc1)=P(c1ccccc1)(c1ccccc1)c1ccccc1	18.2 µM (inactive)	14.8 µM (inactive)	30.6 µM (inactive)	22.6 µM (inactive)	38.5 µM (inactive)	23 µM (inactive)	24.4 µM (inactive)	23.3 µM (inactive)	> 100 µM (inactive)	1.06 µM (active)	20.2 µM (inactive)	22.1 µM (inactive)	27 µM (inactive)	30.1 µM (inactive)	35.8 µM (inactive)	26.5 µM (inactive)	16 µM (inactive)	15.8 µM (inactive)	> 100 µM (inactive)
CCNC(C)(C)C(SS)c1ccc(Br)cc1 (stereo unspecified)	38 µM (inactive)	44.5 µM (inactive)	36.1 µM (inactive)	28.3 µM (inactive)	> 100 µM (inactive)	> 100 µM (inactive)	> 100 µM (inactive)	63.1 µM (inactive)	> 100 µM (inactive)	88.9 µM (inactive)	46.6 µM (inactive)	59.2 µM (inactive)	24 µM (inactive)	21.3 µM (inactive)	39.4 µM (inactive)	60.5 µM (inactive)	> 100 µM (inactive)	34.8 µM (inactive)	79.1 µM (inactive)
O=C(CC(O)(C(F)(F)F)C(F)(F)F)c1cc(CC(=O)C(O)(C(F)(F)F)C(F)(F)F)cc(CC(=O)C(O)(C(F)(F)F)C(F)(F)F)c1	2.05 µM (inactive)	1.77 µM (inactive)	> 10 µM (inactive)	1.95 µM (inactive)	2.67 µM (inactive)	2.05 µM (inactive)	1.84 µM (inactive)	1.46 µM (inactive)	1.85 µM (inactive)	1.11 µM (active)	0.454 µM (active)	2.58 µM (inactive)	0.419 µM (active)	1.79 µM (inactive)	1.86 µM (inactive)	0.78 µM (active)	1.75 µM (inactive)	1 µM (active)	1.25 µM (inactive)
CCN(CC)C(=S)Oc1cc2oc(=O)cc(C)c2cc1Cl	> 100 µM (inactive)	> 100 µM (inactive)	> 100 µM (inactive)	> 100 µM (inactive)	66.5 µM (inactive)	57.7 µM (inactive)	> 100 µM (inactive)	54 µM (inactive)	> 100 µM (inactive)	26.9 µM (inactive)	> 100 µM (inactive)	> 100 µM (inactive)	54 µM (inactive)	> 100 µM (inactive)	23.9 µM (inactive)	> 100 µM (inactive)	8.51 µM (inactive)	> 100 µM (inactive)	> 100 µM (inactive)
CCOC(=O)c1c(Sc2ccc([N+](=O)[O-])cc2[N+](=O)[O-])nc2c3ccccc3ccn12	15 µM (inactive)	10.7 µM (inactive)	> 100 µM (inactive)	> 100 µM (inactive)	> 68.1 µM (inactive)	13.8 µM (inactive)	> 100 µM (inactive)	13.1 µM (inactive)	> 71.9 µM (inactive)	> 39.8 µM (inactive)	> 92.5 µM (inactive)	> 100 µM (inactive)	> 100 µM (inactive)	5.6 µM (inactive)	> 100 µM (inactive)	> 100 µM (inactive)	> 100 µM (inactive)	> 100 µM (inactive)	> 41.9 µM (inactive)
COC1=C(Br)C(O)C2(C=C1Br)CC(C(=O)NCCCCNC(=O)C1=NOC3(C=C(Br)C(OC)=C(Br)C3O)C1)=NO2 (stereo unspecified)	19.8 µM (inactive)	54.3 µM (inactive)	16.3 µM (inactive)	16.3 µM (inactive)	37.3 µM (inactive)	12.4 µM (inactive)	30.6 µM (inactive)	30.5 µM (inactive)	51.2 µM (inactive)	31.8 µM (inactive)	15.6 µM (inactive)	15.5 µM (inactive)	11.4 µM (inactive)	31.1 µM (inactive)	21.8 µM (inactive)	20.4 µM (inactive)	23.7 µM (inactive)	19.9 µM (inactive)	43.2 µM (inactive)
Cc1cc2nnn(C3CCCCO3)c2cc1C (stereo unspecified)	> 100 µM (inactive)	> 100 µM (inactive)	> 100 µM (inactive)	> 100 µM (inactive)	> 100 µM (inactive)	> 100 µM (inactive)	> 100 µM (inactive)	> 100 µM (inactive)	> 100 µM (inactive)	> 100 µM (inactive)	> 100 µM (inactive)	> 100 µM (inactive)	95.5 µM (inactive)	> 100 µM (inactive)	> 100 µM (inactive)	> 100 µM (inactive)	> 100 µM (inactive)	> 100 µM (inactive)	98.2 µM (inactive)
CCCCCN1CCN(c2ncccn2)CC1	> 100 µM (inactive)	> 100 µM (inactive)	> 100 µM (inactive)	> 100 µM (inactive)	> 100 µM (inactive)	> 100 µM (inactive)	> 100 µM (inactive)	> 100 µM (inactive)	> 100 µM (inactive)	> 100 µM (inactive)	> 100 µM (inactive)	> 100 µM (inactive)	> 100 µM (inactive)	> 100 µM (inactive)	> 100 µM (inactive)	> 100 µM (inactive)	> 100 µM (inactive)	> 100 µM (inactive)	> 100 µM (inactive)
COc1cc2c(/C=C3/C(=O)Nc4cc(C)c(O)cc43)c(Cl)[nH]c2cc1C	2.2 µM (inactive)	4.31 µM (inactive)	0.815 µM (active)	6.18 µM (inactive)	2.82 µM (inactive)	2.13 µM (inactive)	4.01 µM (inactive)	2 µM (inactive)	2.88 µM (inactive)	1.96 µM (inactive)	1.06 µM (active)	1.86 µM (inactive)	3.16 µM (inactive)	2.59 µM (inactive)	1.8 µM (inactive)	3.18 µM (inactive)	4.98 µM (inactive)	0.368 µM (active)	4.31 µM (inactive)
COc1ccc2c(c1)-c1nc(=O)n(CCCN(C)C)c3ccc([N+](=O)[O-])c(c13)N2	0.421 µM (active)	1.77 µM (inactive)	0.0811 µM (active)	1.04 µM (active)	2.5 µM (inactive)	1.56 µM (inactive)	0.469 µM (active)	0.675 µM (active)	1.88 µM (inactive)	8.87 µM (inactive)	2.13 µM (inactive)	1.08 µM (active)	15.5 µM (inactive)	0.466 µM (active)	0.448 µM (active)	0.792 µM (active)	12.2 µM (inactive)	2.6 µM (inactive)	0.682 µM (active)
Cc1nc2c(=O)n(C)c(=O)n(C)c2o1	> 100 µM (inactive)	> 100 µM (inactive)	> 100 µM (inactive)	> 100 µM (inactive)	> 100 µM (inactive)	> 100 µM (inactive)	> 100 µM (inactive)	> 100 µM (inactive)	> 100 µM (inactive)	> 100 µM (inactive)	> 100 µM (inactive)	> 100 µM (inactive)	> 100 µM (inactive)	> 100 µM (inactive)	> 10 µM (inactive)	> 100 µM (inactive)	> 100 µM (inactive)	> 100 µM (inactive)	> 100 µM (inactive)
CC1=CC(=O)[C@@H](O)[C@]2(C)[C@H]3[C@@]4(O)OC[C@]35[C@H]([C@@H](C)[C@H]4O)[C@@H](OC(=O)C(C)(C)CO)C(=O)O[C@@H]5C[C@@H]12	< 0.0153 µM (active)	0.122 µM (active)	0.0123 µM (active)	0.118 µM (active)	0.05 µM (active)	0.046 µM (active)	2.51 µM (inactive)	0.0989 µM (active)	2.32 µM (inactive)	0.0838 µM (active)	< 0.0231 µM (active)	< 0.0431 µM (active)	0.0209 µM (active)	0.16 µM (active)	< 0.0189 µM (active)	0.0698 µM (active)	< 0.0453 µM (active)	0.12 µM (active)	0.316 µM (active)
